Results taken from patent US4988708A, “Analgesic and anti-inflammatory 4-OH quinoline carboxylic acid derivatives” (Roussel Uclaf, priority 1984, dated 1991).

tested on: stomachs; assay: Gastric ulceration effect; assay type: in vivo; settings: female rats, oral, seven hours; graphically determined; maximum ulceration index is 300
Procedure: B. Gastric ulceration effect
The test was done on female rats weighing 120 to 150 g on a water diet for 24 hours at the time of the treatment divided into random groupd. The products were administered orally and seven hours later, the animals were killed and their stomachs opened along the great curvature, washed in an isotonic solution of sodium chloride and spread apart by wiping with a cotton pad soaked in the same solution. The degree of ulcerous lesions, in number and in size, was estimated on a scale from 0 to 3 by two observers unware of the treatments. The notation 1 indicated the presence of an obvious ulcer or of several punctiform ulcers.
To take in account also the percentage of rats having ulcers (degree of ulceration greater than 0.5, notation attributed to a hyperemia or to Petechiae often encountered in a control which had fasted) an ulceration index was calculated for each group according to the formula [formula]
The dose corresponding to an ulceration index of 100 or DU 100 was graphically determined (the maximum ulceration index is 300).

| Structure (SMILES) | DU 100 (dose corresponding to an ulceration index of 100) |
| --- | --- |
| CCC(=O)OC(CC)c1nc2c(C(F)(F)F)cccc2c(O)c1C(=O)Nc1nccs1 (stereo not shown) [Example 12, 4-hydroxy-2-[1-(1-oxopropoxy)-propyl]-N-(2-thiazolyl)-8-(trifluoromethyl)-3-quinoline carboxamide] | greater than 300 mg/kg |
| CCCC(=O)OC(CC)c1nc2c(C(F)(F)F)cccc2c(O)c1C(=O)Nc1nccs1 (stereo not shown) [Example 17, 1-[4-hydroxy-3-[(2-thiazolylamino)-carbonyl]-8-trifluoromethyl)-2quinolinyl]-propyl butanoate] | greater than 300 mg/kg |

tested on: chronic arthritis of adjuvant; assay: Anti-inflammatory activity, chronic arthritis of adjuvant (preventative treatment); assay type: in vivo; settings: Rattus norvegicus, 408 h; male rats, oral, day 0 to day before kill on day 17; dose reducing increase in volume of hind paws by 50% (table, section A); read-out: DA50 (the source's name)
Procedure: A. Anti-inflammatory activity chronic arthritis of adjuvant (preventative treatment)
(§1) The injection of adjuvant of "Freund" type into a hind paw causes in rats the rapid appearance of a primary inflammatory lesion in this paw and then after a latent period of 13 to 15 days, causes a secondary arthritis affecting in particular the other hind paw. The test was carried out on male rats aged from 42 to 50 days which received by intraplantar injection 0.1 ml of adjuvant of "Freund"type (suspension in vaseline oil of 6 mg per ml. of killed mycobacterium butyricum). The animals received the product studied orally from day 0 (day of the injection of the adjuvant) until the day before they were killed which occured on day 17. The arthritic control animals and normal control animals received only the vehicle. The assessment criteria of the activity of the substances studied were the increase in the volume of hind paws injected (primary and secondary inflammation) and not injected (secondary inflammation) in comparison with the average volume of paws corresponding to the normal controls. The DA50 was determined, that is to say, the dose which reduced the increase in volume of the hind paws of the treated animals in comparison to those of the control animals by 50% and the results are reported in the following Table.
C. Anti-inflammatory activity chronic arthritis of adjuvant (preventative treatment)
as §1, with “"Freund" type” for “"Freund"type”, “say” for “say,”, “50%.” for “50% and the results are reported in the following Table.”

| Structure (SMILES) | ED50 |
| --- | --- |
| CC(O)C(O)c1nc2c(C(F)(F)F)cccc2c(O)c1C(=O)Nc1nccs1 (stereo not shown) [Example 3, 2-(1,2-dihydroxypropyl)-4-hydroxy-N-(2-thiazolyl)-8-trifluoromethyl-3-quinoline carboxamide] | 3 mg/kg |
| CCC(=O)OC(CC)c1nc2c(C(F)(F)F)cccc2c(O)c1C(=O)Nc1nccs1 (stereo not shown) [Example 12, 4-hydroxy-2-[1-(1-oxopropoxy)-propyl]-N-(2-thiazolyl)-8-(trifluoromethyl)-3-quinoline carboxamide] | 0.8 mg/kg |
| CCC(OC(=O)c1cc2ccccc2[nH]1)c1nc2c(C(F)(F)F)cccc2c(O)c1C(=O)Nc1nccs1 (stereo not shown) [Example 28, 1-[4-hydroxy-3-{[(2-aminothiazolyl)-carbonyl]-8-trifluoromethyl2-quinolinyl]-propyl]1H-indole-2-carboxylate] | 2 mg/kg |
| CCCC(=O)OC(CC)c1nc2c(C(F)(F)F)cccc2c(O)c1C(=O)Nc1nccs1 (stereo not shown) [Example 17, 1-[4-hydroxy-3-[(2-thiazolylamino)-carbonyl]-8-trifluoromethyl)-2quinolinyl]-propyl butanoate] | 1.3 mg/kg |
| CCC(=O)OCC(OC(=O)CC)c1nc2c(C(F)(F)F)cccc2c(O)c1C(=O)Nc1nccs1 (stereo not shown) [Example 4, 2-[1,2-bis-(1-oxopropoxy)ethyl]-4-hydroxy-N-(2-thiazolyl)-8-trifluoromethyl-3-quinolinecarboxamide] | 1 mg/kg |
| COCC(O)c1nc2c(C(F)(F)F)cccc2c(O)c1C(=O)Nc1nccs1 (stereo not shown) [Example 1, 4-hydroxy-2-(1-hydroxy-2-methoxy-ethyl)-N-(2-thiazolyl)-8-(trifluoromethyl)-3-quinoline carboxamide] | 2 mg/kg |
| CCC(OC(=O)CN)c1nc2c(C(F)(F)F)cccc2c(O)c1C(=O)Nc1nccs1 (stereo not shown) [Example 16, 1-[4-hydroxy-3-[(2-thiazolylamino)-carbonyl]-8-(trifluoromethyl)-2quinolinyl]-propyl amino acetate dichlorohydride] | 1 mg/kg |
| O=C(Nc1nccs1)c1c(C(O)CO)nc2c(C(F)(F)F)cccc2c1O (stereo not shown) [Example 2, 2-(1,2-dihydroxyethyl)-4-hydroxy-N-(2-thiazolyl)-8-trifluoromethyl-3-quinoline carboxamide] | 0.7 mg/kg |
| CCC(=O)OC(COC)c1nc2c(C(F)(F)F)cccc2c(O)c1C(=O)Nc1nccs1 (stereo not shown) [Example 5, 2-[2-methoxy-1-(1-oxopropoxy)-ethyl]-4-hydroxy-N-(2-thiazolyl)-8-trifluoromethyl-3-quinoline carboxamide] | 5 mg/kg |

same assay, conditions: Rattus norvegicus, 408 h; male rats, oral, day 0 to day before kill on day 17; dose reducing increase in volume of hind paws by 50% (text, section C); read-out: DA50 (the source's name)

| Structure (SMILES) | ED50 |
| --- | --- |
| CCC(O)c1nc2c(C(F)(F)F)cccc2c(O)c1C(=O)Nc1nccs1 (single isomer, unassigned; isomer b) [Step A of Example 27 (B-isomer), 4-hydroxy-2-(1-hydroxypropyl)-N-(2-thiazolyl)-8-trifluoromethyl-3-quinoline carboxamide isomer B] | 0.5 mg/kg |

same assay, conditions: male rats, oral, day 0 to day before kill on day 17; dose reducing increase in volume of hind paws by 50% (table, section A); 24480 min

| Structure (SMILES) | DA50 |
| --- | --- |
| CCCc1ncc(C(=O)OC(CC)c2nc3c(C(F)(F)F)cccc3c(O)c2C(=O)Nc2nccs2)s1 (stereo not shown) [Example 29] | 2 mg/kg |
